Results as given in ChEMBL document CHEMBL3885881, “DrugMatrix”.

Organism: Rattus norvegicus
Assay: DrugMatrix - Regimen: Daily Repeat
Type: toxicity, organism-based, Sprague-Dawley
Set-up: regimen Daily Repeat, gender Male, age 6-8 weeks
Settings: in vivo, po, route oral GAVAGE, vehicle .5 % CMC; for ABSOLUTE BASOPHIL / BASOPHIL / EOSINOPHIL / ERYTHROCYTE COUNT / HEMATOCRIT / HEMOGLOBIN / LEUKOCYTE COUNT / LYMPHOCYTE / MEAN CORPUSCULAR HEMOGLOBIN / MEAN CORPUSCULAR HEMOGLOBIN CONCENTRATION / MEAN CORPUSCULAR VOLUME / MONOCYTE / NEUTROPHIL / PLATELET COUNT: tissue Blood; for ALANINE AMINOTRANSFERASE / ALKALINE PHOSPHATASE / ASPARTATE AMINOTRANSFERASE / BLOOD UREA NITROGEN / CHLORIDE / CHOLESTEROL / CREATINE PHOSPHOKINASE / CREATININE / GLUCOSE / PHOSPHORUS / POTASSIUM / SODIUM / TOTAL BILIRUBIN / TOTAL PROTEIN: tissue Plasma
[1] = 0 mg/kg, 72 h, dose level Control, time 3 day
[2] = 0 mg/kg, 120 h, dose level Control, time 5 day
[3] = 20 mg/kg, 72 h, dose level Low, time 3 day
[4] = 20 mg/kg, 120 h, dose level Low, time 5 day
[5] = 89 mg/kg, 72 h, dose level High, time 3 day
[6] = 89 mg/kg, 120 h, dose level High, time 5 day

CC(C(=O)O)c1ccc2oc(-c3ccc(Cl)cc3)nc2c1 (configuration not stated) [BENOXAPROFEN]
ABSOLUTE BASOPHIL [1]: 16.7 cells/µL | BASOPHIL [1]: 0.17% | EOSINOPHIL [1]: 0.62% | ERYTHROCYTE COUNT [1]: 6.55 x10E6/uL | HEMATOCRIT [1]: 42% | HEMOGLOBIN [1]: 13.48 G/DL | LEUKOCYTE COUNT [1]: 8.79 x10E3/uL | LYMPHOCYTE [1]: 76.98% | MEAN CORPUSCULAR HEMOGLOBIN [1]: 20.57 pg | MEAN CORPUSCULAR HEMOGLOBIN CONCENTRATION [1]: 32.08 G/DL | MEAN CORPUSCULAR VOLUME [1]: 64.1 fL | MONOCYTE [1]: 2.12% | NEUTROPHIL [1]: 19% | PLATELET COUNT [1]: 1432.17 x10E3/uL | ALANINE AMINOTRANSFERASE [1]: 42.83 u/L | ALKALINE PHOSPHATASE [1]: 328.5 u/L | ASPARTATE AMINOTRANSFERASE [1]: 78.33 u/L | BLOOD UREA NITROGEN [1]: 14.5 mg/dL | CHLORIDE [1]: 104.5 MEQ/L | CHOLESTEROL [1]: 78.67 mg/dL | CREATINE PHOSPHOKINASE [1]: 282.33 u/L | CREATININE [1]: 0.25 mg/dL | GLUCOSE [1]: 173.67 mg/dL | PHOSPHORUS [1]: 12.83 mg/dL | POTASSIUM [1]: 6.7 MEQ/L | SODIUM [1]: 145.83 MEQ/L | TOTAL BILIRUBIN [1]: 0.4 mg/dL | TOTAL PROTEIN [1]: 5.93 G/DL | ABSOLUTE BASOPHIL [2]: 28 cells/µL | BASOPHIL [2]: 0.26% | EOSINOPHIL [2]: 0.44% | ERYTHROCYTE COUNT [2]: 6.99 x10E6/uL | HEMATOCRIT [2]: 45.12% | HEMOGLOBIN [2]: 14.26 G/DL | LEUKOCYTE COUNT [2]: 9.42 x10E3/uL | LYMPHOCYTE [2]: 79.92% | MEAN CORPUSCULAR HEMOGLOBIN [2]: 20.44 pg | MEAN CORPUSCULAR HEMOGLOBIN CONCENTRATION [2]: 31.62 G/DL | MEAN CORPUSCULAR VOLUME [2]: 64.6 fL | MONOCYTE [2]: 2.2% | NEUTROPHIL [2]: 16.14% | PLATELET COUNT [2]: 1062.2 x10E3/uL | ALANINE AMINOTRANSFERASE [2]: 44 u/L | ALKALINE PHOSPHATASE [2]: 342.6 u/L | ASPARTATE AMINOTRANSFERASE [2]: 74.17 u/L | BLOOD UREA NITROGEN [2]: 13 mg/dL | CHLORIDE [2]: 103 MEQ/L | CHOLESTEROL [2]: 72.83 mg/dL | CREATINE PHOSPHOKINASE [2]: 184.67 u/L | CREATININE [2]: 0.47 mg/dL | GLUCOSE [2]: 168.17 mg/dL | PHOSPHORUS [2]: 12.27 mg/dL | POTASSIUM [2]: 6.98 MEQ/L | SODIUM [2]: 147 MEQ/L | TOTAL BILIRUBIN [2]: 0.65 mg/dL | TOTAL PROTEIN [2]: 6.23 G/DL | ABSOLUTE BASOPHIL [3]: 20 cells/µL | BASOPHIL [3]: 0.23% | EOSINOPHIL [3]: 0.43% | ERYTHROCYTE COUNT [3]: 6.67 x10E6/uL | HEMATOCRIT [3]: 42.8% | HEMOGLOBIN [3]: 13.83 G/DL | LEUKOCYTE COUNT [3]: 10.28 x10E3/uL | LYMPHOCYTE [3]: 78.07% | MEAN CORPUSCULAR HEMOGLOBIN [3]: 20.73 pg | MEAN CORPUSCULAR HEMOGLOBIN CONCENTRATION [3]: 32.33 G/DL | MEAN CORPUSCULAR VOLUME [3]: 64.2 fL | MONOCYTE [3]: 2.7% | NEUTROPHIL [3]: 16.57% | PLATELET COUNT [3]: 1248 x10E3/uL | ALANINE AMINOTRANSFERASE [3]: 44.67 u/L | ALKALINE PHOSPHATASE [3]: 316.67 u/L | ASPARTATE AMINOTRANSFERASE [3]: 75.67 u/L | BLOOD UREA NITROGEN [3]: 13.33 mg/dL | CHLORIDE [3]: 104.33 MEQ/L | CHOLESTEROL [3]: 64.33 mg/dL | CREATINE PHOSPHOKINASE [3]: 179 u/L | CREATININE [3]: 0.33 mg/dL | GLUCOSE [3]: 176.67 mg/dL | PHOSPHORUS [3]: 12.2 mg/dL | POTASSIUM [3]: 6.37 MEQ/L | SODIUM [3]: 146.33 MEQ/L | TOTAL BILIRUBIN [3]: 0.37 mg/dL | TOTAL PROTEIN [3]: 5.7 G/DL | ABSOLUTE BASOPHIL [4]: 56.7 cells/µL | BASOPHIL [4]: 0.6% | EOSINOPHIL [4]: 0.53% | ERYTHROCYTE COUNT [4]: 7.47 x10E6/uL | HEMATOCRIT [4]: 48.6% | HEMOGLOBIN [4]: 15.37 G/DL | LEUKOCYTE COUNT [4]: 8.81 x10E3/uL | LYMPHOCYTE [4]: 79.3% | MEAN CORPUSCULAR HEMOGLOBIN [4]: 20.53 pg | MEAN CORPUSCULAR HEMOGLOBIN CONCENTRATION [4]: 31.57 G/DL | MEAN CORPUSCULAR VOLUME [4]: 65.03 fL | MONOCYTE [4]: 2.53% | NEUTROPHIL [4]: 15.73% | PLATELET COUNT [4]: 1097 x10E3/uL | ALKALINE PHOSPHATASE [4]: 357.67 u/L | ASPARTATE AMINOTRANSFERASE [4]: 65 u/L | BLOOD UREA NITROGEN [4]: 13.33 mg/dL | CHLORIDE [4]: 104.67 MEQ/L | CHOLESTEROL [4]: 59.33 mg/dL | CREATINE PHOSPHOKINASE [4]: 158.33 u/L | CREATININE [4]: 0.43 mg/dL | GLUCOSE [4]: 175.33 mg/dL | PHOSPHORUS [4]: 12.03 mg/dL | POTASSIUM [4]: 7.37 MEQ/L | SODIUM [4]: 150.67 MEQ/L | TOTAL BILIRUBIN [4]: 0.33 mg/dL | TOTAL PROTEIN [4]: 6.43 G/DL | ABSOLUTE BASOPHIL [5]: 46.7 cells/µL | BASOPHIL [5]: 0.87% | EOSINOPHIL [5]: 0.43% | ERYTHROCYTE COUNT [5]: 5.74 x10E6/uL | HEMATOCRIT [5]: 35.5% | HEMOGLOBIN [5]: 11.63 G/DL | LEUKOCYTE COUNT [5]: 4.56 x10E3/uL | LYMPHOCYTE [5]: 64.07% | MEAN CORPUSCULAR HEMOGLOBIN [5]: 20.27 pg | MEAN CORPUSCULAR HEMOGLOBIN CONCENTRATION [5]: 32.8 G/DL | MEAN CORPUSCULAR VOLUME [5]: 61.93 fL | MONOCYTE [5]: 4.3% | NEUTROPHIL [5]: 29.23% | PLATELET COUNT [5]: 1116 x10E3/uL | ALANINE AMINOTRANSFERASE [5]: 30.67 u/L | ALKALINE PHOSPHATASE [5]: 216.33 u/L | ASPARTATE AMINOTRANSFERASE [5]: 71 u/L | BLOOD UREA NITROGEN [5]: 13 mg/dL | CHLORIDE [5]: 105 MEQ/L | CHOLESTEROL [5]: 81 mg/dL | CREATINE PHOSPHOKINASE [5]: 293 u/L | CREATININE [5]: 0.37 mg/dL | GLUCOSE [5]: 179 mg/dL | PHOSPHORUS [5]: 11.33 mg/dL | POTASSIUM [5]: 6.47 MEQ/L | SODIUM [5]: 142.33 MEQ/L | TOTAL BILIRUBIN [5]: 0.33 mg/dL | TOTAL PROTEIN [5]: 4.93 G/DL | ABSOLUTE BASOPHIL [6]: 80 cells/µL | BASOPHIL [6]: 0.75% | EOSINOPHIL [6]: 0.5% | ERYTHROCYTE COUNT [6]: 3.39 x10E6/uL | HEMATOCRIT [6]: 21.15% | HEMOGLOBIN [6]: 6.75 G/DL | LEUKOCYTE COUNT [6]: 9.48 x10E3/uL | LYMPHOCYTE [6]: 62% | MEAN CORPUSCULAR HEMOGLOBIN [6]: 20.05 pg | MEAN CORPUSCULAR HEMOGLOBIN CONCENTRATION [6]: 32.38 G/DL | MEAN CORPUSCULAR VOLUME [6]: 61.98 fL | MONOCYTE [6]: 3.5% | NEUTROPHIL [6]: 36% | PLATELET COUNT [6]: 1019.25 x10E3/uL | ALANINE AMINOTRANSFERASE [6]: 205.75 u/L | ALKALINE PHOSPHATASE [6]: 329.75 u/L | ASPARTATE AMINOTRANSFERASE [6]: 292.5 u/L | BLOOD UREA NITROGEN [6]: 38.75 mg/dL | CHLORIDE [6]: 103.5 MEQ/L | CHOLESTEROL [6]: 101 mg/dL | CREATINE PHOSPHOKINASE [6]: 255.75 u/L | CREATININE [6]: 0.33 mg/dL | GLUCOSE [6]: 163.25 mg/dL | PHOSPHORUS [6]: 10.22 mg/dL | POTASSIUM [6]: 5.38 MEQ/L | SODIUM [6]: 143.25 MEQ/L | TOTAL BILIRUBIN [6]: 0.42 mg/dL | TOTAL PROTEIN [6]: 4.65 G/DL
